Results on one molecule are retold here after patent US9034960B2, “Antidrift composition” (Momentive Performance Materials Inc., priority 2012, dated 2015).

In one data set the test system is velvetleaf. Kind of data set: Herbicidal performance of glyphosate spray compositions sprayed on velvetleaf. The data set is classed as in vivo. To be noted: 1% glyphosate IPA salt. On the procedure: Urea inclusion complexes containing PAM-PAA copolymer, sodium salt (PAM-PAA-Na) (Zetag 4100, BASF), both without and with Silicone A superspreader, were made from molten urea as was a comparison urea inclusion complex containing PAM and Silicone A. Aqueous herbicidal spray compositions were prepared containing 0.75% of these urea inclusion complexes and 1% glyphosate isopropylamine salt (“[…]”) herbicide and evaluated for reduction of drift, increased spreading and herbicidal performance when sprayed on velvetleaf.
A solution of 0.042% Silicone A and 1% glyphosate IPA salt (Example 26) was used as a control as was a plain 1% glyphosate IPA salt solution (Example 27).

Data set [1] in a line: Spreading/wetting: diameter of a 10 microliter drop on polystyrene dish. The data set is classed as physicochemical. Conditions: Table 3; aqueous herbicidal spray composition. On the procedure: The spreading ability of the various superspreaders utilized herein was determined by depositing a single drop (10 microliters) of solution onto a clean, flat polystyrene dish. The polystyrene surfaces were cleaned by rinsing with isopropanol and then with deionized water. The dishes were then dried with dry nitrogen gas. The diameters of the resulting drops were then measured. Each solution was tested 2 to 4 times and the average diameter was calculated.

Take `CC(C)N.O=C(O)CNCP(=O)(O)O` [Example 27, glyphosate isopropylamine salt]: the “% Control after 1 week” value with velvetleaf (after 1 week) was found to be 25%. In the data set on velvetleaf (after 2 weeks), the “% Control after 2 weeks” value is given as 81%. In addition, the “Drop Spread Diameter” value in data set [1] came out at 4.8 mm.
